Source: patent US20230172885A1, “THIOL-CONTAINING COMPOUNDS FOR USE IN TREATING CORONAVIRUS” (priority 2020, published 2023)

Biological target: RBD^N501Y binding to ACE2 (Severe acute respiratory syndrome coronavirus 2, UniProt P0DTC2, N501Y)
Set-up: species or system SARS-CoV-2

Row | Structure (SMILES) | inhibition of binding of RBD^N501Y to ACE2
1 | NCCS [Cysteamine] | potently inhibited
2 | O[C@@H]1[C@@H](O)[C@@H](O[C@H]2O[C@H](CS)[C@@H](O)[C@H](O)[C@H]2O)O[C@H](CS)[C@H]1O [MUC-31, 6,6′-dithiotrehalose] | potently inhibited
